Data from PubChem BioAssay (NCI).
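The compound was tested at five concentrations on cells cultured in 96-well plates, with a 48-hour exposure period. GI50: concentration for 50% inhibition of growth. TGI: concentration producing complete growth inhibition.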

Assays:
Assay in all cases: inhibition of tumour cell growth, NCI panel, 48 h; in the data active = GI50 below about 0.43 µM; inactive = the rest
NCI-H226 lung = system: NCI-H226 lung
NCI-H23 lung = system: NCI-H23 lung
NCI-H460 lung = system: NCI-H460 lung
NCI-H522 lung = system: NCI-H522 lung
NCI/ADR-RES ovarian = system: NCI/ADR-RES ovarian
OVCAR-3 ovarian = system: OVCAR-3 ovarian
OVCAR-4 ovarian = system: OVCAR-4 ovarian
OVCAR-5 ovarian = system: OVCAR-5 ovarian
OVCAR-8 ovarian = system: OVCAR-8 ovarian
PC-3 prostate = system: PC-3 prostate
RXF 393 renal = system: RXF 393 renal
SF-268 CNS = system: SF-268 CNS
SF-295 CNS = system: SF-295 CNS
SF-539 CNS = system: SF-539 CNS
SK-MEL-2 melanoma = system: SK-MEL-2 melanoma
SK-MEL-28 melanoma = system: SK-MEL-28 melanoma
SK-MEL-5 melanoma = system: SK-MEL-5 melanoma
SK-OV-3 ovarian = system: SK-OV-3 ovarian
SN12C renal = system: SN12C renal
SNB-19 CNS = system: SNB-19 CNS
SNB-75 CNS = system: SNB-75 CNS
SR leukemia = system: SR leukemia
SW-620 colon = system: SW-620 colon
T-47D breast = system: T-47D breast
TK-10 renal = system: TK-10 renal
U251 CNS = system: U251 CNS
UACC-257 melanoma = system: UACC-257 melanoma
UACC-62 melanoma = system: UACC-62 melanoma
UO-31 renal = system: UO-31 renal

C[C@H](Nc1cc(Cl)nc2c1cnn2[C@@H]1O[C@H](COP(=O)(O)CP(=O)(O)O)[C@@H](O)[C@H]1O)c1ccccc1F
> 100 µM: TGI (NCI-H226 lung) | TGI (NCI-H23 lung) | TGI (NCI-H460 lung) | TGI (NCI-H522 lung) | TGI (NCI/ADR-RES ovarian) | TGI (OVCAR-3 ovarian) | TGI (OVCAR-4 ovarian) | TGI (OVCAR-5 ovarian) | TGI (OVCAR-8 ovarian) | TGI (PC-3 prostate) | TGI (RXF 393 renal) | TGI (SF-268 CNS) | TGI (SF-295 CNS) | TGI (SF-539 CNS) | TGI (SK-MEL-2 melanoma) | TGI (SK-MEL-28 melanoma) | TGI (SK-MEL-5 melanoma) | TGI (SK-OV-3 ovarian) | TGI (SN12C renal) | TGI (SNB-19 CNS) | TGI (SNB-75 CNS) | TGI (SR leukemia) | TGI (SW-620 colon) | TGI (T-47D breast) | TGI (TK-10 renal) | TGI (U251 CNS) | TGI (UACC-257 melanoma) | TGI (UACC-62 melanoma) | TGI (UO-31 renal)
inactive: GI50 (NCI-H23 lung) > 100 µM | GI50 (NCI-H460 lung) > 100 µM | GI50 (NCI-H522 lung) > 100 µM | GI50 (NCI/ADR-RES ovarian) > 100 µM | GI50 (OVCAR-3 ovarian) > 100 µM | GI50 (OVCAR-4 ovarian) > 100 µM | GI50 (OVCAR-5 ovarian) > 100 µM | GI50 (OVCAR-8 ovarian) > 100 µM | GI50 (PC-3 prostate) > 100 µM | GI50 (RXF 393 renal) > 100 µM | GI50 (SF-268 CNS) > 100 µM | GI50 (SF-295 CNS) > 100 µM | GI50 (SF-539 CNS) > 100 µM | GI50 (SK-MEL-2 melanoma) > 100 µM | GI50 (SK-MEL-28 melanoma) > 100 µM | GI50 (SK-MEL-5 melanoma) > 100 µM | GI50 (SK-OV-3 ovarian) > 100 µM | GI50 (SN12C renal) > 100 µM | GI50 (SNB-19 CNS) > 100 µM | GI50 (SNB-75 CNS) > 100 µM | GI50 (SR leukemia) > 100 µM | GI50 (SW-620 colon) > 100 µM | GI50 (T-47D breast) > 100 µM | GI50 (TK-10 renal) > 100 µM | GI50 (U251 CNS) > 100 µM | GI50 (UACC-257 melanoma) > 100 µM | GI50 (UACC-62 melanoma) > 100 µM | GI50 (UO-31 renal) > 100 µM
